Laboratory results as given in PMC12670405, “Second-Generation AURKA-Targeting PROTACs: Structural Optimization toward in Vivo Degradation in Neuroblastoma” (Journal of Medicinal Chemistry, 2025).

Legend:
Assay in all cases: KINOMEscan scanMAX
Format in all cases: binding
Settings in all cases: read-out: Percent Control
[1] = target: T1, ABL1(Q252H)-phosphorylated (Homo sapiens, UniProt P00519, Q252H)
T1 construct: purchased Eurofins Discovery (DiscoverX KINOMEscan scanMAX)
Method: (§1) The kinome-wide binding assay was performed by Eurofins Discovery using the scanMAX screening platform. More information can be found on the Eurofins Discovery Web site.

NDR2 = target: T2, NDR2 (Homo sapiens, UniProt Q9Y2H1)
T2 construct: purchased Eurofins Discovery (DiscoverX KINOMEscan scanMAX)
T2 sequence (Q9Y2H1 whole entry): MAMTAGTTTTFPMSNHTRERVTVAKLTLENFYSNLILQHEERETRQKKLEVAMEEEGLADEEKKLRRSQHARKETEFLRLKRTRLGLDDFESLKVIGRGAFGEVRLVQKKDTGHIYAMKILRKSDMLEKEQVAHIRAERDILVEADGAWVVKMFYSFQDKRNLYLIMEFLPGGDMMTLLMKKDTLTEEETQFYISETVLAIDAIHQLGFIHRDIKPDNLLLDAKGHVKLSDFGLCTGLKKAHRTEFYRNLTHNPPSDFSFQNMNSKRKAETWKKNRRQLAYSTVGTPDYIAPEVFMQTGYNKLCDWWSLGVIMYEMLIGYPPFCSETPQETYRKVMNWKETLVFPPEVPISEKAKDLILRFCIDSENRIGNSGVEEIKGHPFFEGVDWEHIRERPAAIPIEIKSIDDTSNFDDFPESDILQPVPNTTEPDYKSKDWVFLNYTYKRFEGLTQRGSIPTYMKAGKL
Method: as §1

PRKD1 = target: T3, PRKD1 (Homo sapiens, UniProt Q15139)
T3 construct: purchased Eurofins Discovery (DiscoverX KINOMEscan scanMAX)
Method: as §1

MYLK4 = target: T4, MYLK4 (Homo sapiens, UniProt Q86YV6)
T4 construct: purchased Eurofins Discovery (DiscoverX KINOMEscan scanMAX)
Method: as §1

SRPK3 = target: T5, SRPK3 (Homo sapiens, UniProt Q9UPE1)
T5 construct: purchased Eurofins Discovery (DiscoverX KINOMEscan scanMAX)
Method: as §1

SGK = target: T6, SGK (Homo sapiens, UniProt O00141)
T6 construct: purchased Eurofins Discovery (DiscoverX KINOMEscan scanMAX)
Method: as §1

DCAMKL2 = target: T7, DCAMKL2 (Homo sapiens, UniProt Q8N568)
T7 construct: purchased Eurofins Discovery (DiscoverX KINOMEscan scanMAX)
Method: as §1

ROS1 = target: T8, ROS1 (Homo sapiens, UniProt P08922)
T8 construct: purchased Eurofins Discovery (DiscoverX KINOMEscan scanMAX)
Method: as §1

NEK7 = target: T9, NEK7 (Homo sapiens, UniProt Q8TDX7)
T9 construct: purchased Eurofins Discovery (DiscoverX KINOMEscan scanMAX)
T9 sequence (Q8TDX7 whole entry): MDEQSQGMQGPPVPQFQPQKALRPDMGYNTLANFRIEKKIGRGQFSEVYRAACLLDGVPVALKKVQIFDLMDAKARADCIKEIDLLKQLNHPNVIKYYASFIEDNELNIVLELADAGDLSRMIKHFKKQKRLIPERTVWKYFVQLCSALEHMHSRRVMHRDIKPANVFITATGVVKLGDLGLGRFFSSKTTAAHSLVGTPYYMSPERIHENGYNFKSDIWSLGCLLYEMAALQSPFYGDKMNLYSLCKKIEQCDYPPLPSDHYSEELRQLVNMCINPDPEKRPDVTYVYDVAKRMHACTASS
Method: as §1

ERK5 = target: T10, ERK5 (Homo sapiens, UniProt Q13164)
T10 construct: purchased Eurofins Discovery (DiscoverX KINOMEscan scanMAX)
Method: as §1

MEK4 = target: T11, MEK4 (Homo sapiens, UniProt P45985)
T11 construct: purchased Eurofins Discovery (DiscoverX KINOMEscan scanMAX)
Method: as §1

CSF1R = target: T12, CSF1R (Homo sapiens, UniProt P07333)
T12 construct: purchased Eurofins Discovery (DiscoverX KINOMEscan scanMAX)
Method: as §1

AMPK-alpha1 = target: T13, AMPK-alpha1 (Homo sapiens, UniProt Q13131)
T13 construct: purchased Eurofins Discovery (DiscoverX KINOMEscan scanMAX)
T13 sequence (Q13131 whole entry): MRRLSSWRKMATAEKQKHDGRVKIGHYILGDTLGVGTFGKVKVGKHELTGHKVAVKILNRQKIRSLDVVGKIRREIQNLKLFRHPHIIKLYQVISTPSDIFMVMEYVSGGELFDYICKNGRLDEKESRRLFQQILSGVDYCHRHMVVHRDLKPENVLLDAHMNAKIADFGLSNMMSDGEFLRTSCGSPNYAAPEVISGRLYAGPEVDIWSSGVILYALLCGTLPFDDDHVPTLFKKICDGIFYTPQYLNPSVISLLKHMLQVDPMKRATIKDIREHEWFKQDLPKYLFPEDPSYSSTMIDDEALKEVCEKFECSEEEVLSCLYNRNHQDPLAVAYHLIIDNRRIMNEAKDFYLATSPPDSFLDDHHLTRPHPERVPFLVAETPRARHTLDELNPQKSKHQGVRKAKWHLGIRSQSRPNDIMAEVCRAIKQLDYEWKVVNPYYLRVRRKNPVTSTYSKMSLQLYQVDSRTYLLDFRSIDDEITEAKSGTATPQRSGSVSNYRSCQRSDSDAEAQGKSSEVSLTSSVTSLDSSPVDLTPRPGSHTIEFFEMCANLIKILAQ
Method: as §1

TAK1 = target: T14, TAK1 (Homo sapiens, UniProt O43318)
T14 construct: purchased Eurofins Discovery (DiscoverX KINOMEscan scanMAX)
Method: as §1

MINK = target: T15, MINK (Homo sapiens, UniProt Q8N4C8)
T15 construct: purchased Eurofins Discovery (DiscoverX KINOMEscan scanMAX)
Method: as §1

SGK2 = target: T16, SGK2 (Homo sapiens, UniProt Q9HBY8)
T16 construct: purchased Eurofins Discovery (DiscoverX KINOMEscan scanMAX)
T16 sequence (Q9HBY8 whole entry): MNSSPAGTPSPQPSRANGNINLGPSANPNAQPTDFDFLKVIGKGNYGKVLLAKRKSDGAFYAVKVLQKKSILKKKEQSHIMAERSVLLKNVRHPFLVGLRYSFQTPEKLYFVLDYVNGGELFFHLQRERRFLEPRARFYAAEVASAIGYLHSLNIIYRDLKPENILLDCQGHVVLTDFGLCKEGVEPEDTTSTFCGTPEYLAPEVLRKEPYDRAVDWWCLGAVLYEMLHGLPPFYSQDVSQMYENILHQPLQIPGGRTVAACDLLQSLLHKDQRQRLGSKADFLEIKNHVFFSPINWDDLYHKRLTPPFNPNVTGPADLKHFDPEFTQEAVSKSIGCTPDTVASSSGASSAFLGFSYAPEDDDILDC
Method: as §1

ERK4 = target: T17, ERK4 (Homo sapiens, UniProt P31152)
T17 construct: purchased Eurofins Discovery (DiscoverX KINOMEscan scanMAX)
T17 sequence (P31152 whole entry): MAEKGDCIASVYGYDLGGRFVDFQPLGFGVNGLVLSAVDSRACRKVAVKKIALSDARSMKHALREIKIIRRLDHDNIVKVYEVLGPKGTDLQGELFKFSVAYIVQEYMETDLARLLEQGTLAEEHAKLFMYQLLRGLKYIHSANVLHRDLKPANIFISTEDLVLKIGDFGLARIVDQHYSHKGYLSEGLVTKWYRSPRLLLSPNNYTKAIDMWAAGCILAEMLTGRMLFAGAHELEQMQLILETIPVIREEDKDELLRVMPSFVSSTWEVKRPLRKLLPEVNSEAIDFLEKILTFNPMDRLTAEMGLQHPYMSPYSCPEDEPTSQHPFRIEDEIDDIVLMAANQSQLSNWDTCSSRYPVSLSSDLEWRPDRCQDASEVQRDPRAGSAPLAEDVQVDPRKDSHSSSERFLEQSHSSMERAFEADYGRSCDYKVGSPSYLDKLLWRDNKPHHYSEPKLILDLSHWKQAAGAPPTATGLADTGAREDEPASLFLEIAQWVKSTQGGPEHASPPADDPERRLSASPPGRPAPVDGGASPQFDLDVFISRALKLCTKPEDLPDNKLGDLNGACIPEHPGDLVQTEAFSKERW
Method: as §1

EPHB4 = target: T18, EPHB4 (Homo sapiens, UniProt P54760)
T18 construct: purchased Eurofins Discovery (DiscoverX KINOMEscan scanMAX)
Method: as §1

NEK11 = target: T19, NEK11 (Homo sapiens, UniProt Q8NG66)
T19 construct: purchased Eurofins Discovery (DiscoverX KINOMEscan scanMAX)
Method: as §1

ABL1-nonphosphorylated = target: T20, ABL1-nonphosphorylated (Homo sapiens, UniProt P00519)
T20 construct: purchased Eurofins Discovery (DiscoverX KINOMEscan scanMAX)
Method: as §1

BRAF(V600E) = target: T21, BRAF(V600E) (Homo sapiens, UniProt P15056, V600E)
T21 construct: purchased Eurofins Discovery (DiscoverX KINOMEscan scanMAX)
Method: as §1

ITK = target: T22, ITK (Homo sapiens, UniProt Q08881)
T22 construct: purchased Eurofins Discovery (DiscoverX KINOMEscan scanMAX)
T22 sequence (Q08881 whole entry): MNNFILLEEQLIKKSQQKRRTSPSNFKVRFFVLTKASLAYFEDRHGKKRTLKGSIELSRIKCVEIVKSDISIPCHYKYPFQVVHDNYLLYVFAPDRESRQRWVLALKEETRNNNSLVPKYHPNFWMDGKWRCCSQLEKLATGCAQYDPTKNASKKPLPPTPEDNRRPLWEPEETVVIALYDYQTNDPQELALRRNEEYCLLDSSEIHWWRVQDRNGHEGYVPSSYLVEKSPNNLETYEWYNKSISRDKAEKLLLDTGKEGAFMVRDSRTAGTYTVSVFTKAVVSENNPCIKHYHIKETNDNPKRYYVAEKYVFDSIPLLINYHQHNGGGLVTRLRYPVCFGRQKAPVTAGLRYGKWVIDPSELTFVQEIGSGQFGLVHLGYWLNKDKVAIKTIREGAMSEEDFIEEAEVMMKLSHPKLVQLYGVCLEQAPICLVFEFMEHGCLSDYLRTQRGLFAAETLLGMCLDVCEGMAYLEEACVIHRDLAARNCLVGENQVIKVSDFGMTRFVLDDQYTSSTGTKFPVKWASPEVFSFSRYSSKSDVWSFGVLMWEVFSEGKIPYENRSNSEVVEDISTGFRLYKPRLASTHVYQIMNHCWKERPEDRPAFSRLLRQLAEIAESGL
Method: as §1

[2] = target: T23, ABL1(T315I)-nonphosphorylated (Homo sapiens, UniProt P00519, T315I)
T23 construct: purchased Eurofins Discovery (DiscoverX KINOMEscan scanMAX)
Method: as §1

CDKL1 = target: T24, CDKL1 (Homo sapiens, UniProt Q00532)
T24 construct: purchased Eurofins Discovery (DiscoverX KINOMEscan scanMAX)
T24 sequence (Q00532 whole entry): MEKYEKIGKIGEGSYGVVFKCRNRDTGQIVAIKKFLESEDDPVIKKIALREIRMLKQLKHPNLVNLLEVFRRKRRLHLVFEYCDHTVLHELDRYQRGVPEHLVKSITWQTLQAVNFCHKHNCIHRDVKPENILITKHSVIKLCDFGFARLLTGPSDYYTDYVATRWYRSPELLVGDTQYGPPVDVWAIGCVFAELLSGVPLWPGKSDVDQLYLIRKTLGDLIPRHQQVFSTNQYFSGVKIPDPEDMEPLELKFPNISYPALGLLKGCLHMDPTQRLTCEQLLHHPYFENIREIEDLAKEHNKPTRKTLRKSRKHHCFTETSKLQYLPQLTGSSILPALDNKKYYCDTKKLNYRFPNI
Method: as §1

DCAMKL3 = target: T25, DCAMKL3 (Homo sapiens, UniProt Q9C098)
T25 construct: purchased Eurofins Discovery (DiscoverX KINOMEscan scanMAX)
Method: as §1

CDK2 = target: T26, CDK2 (Homo sapiens, UniProt P24941)
T26 construct: purchased Eurofins Discovery (DiscoverX KINOMEscan scanMAX)
Method: as §1

MLCK = target: T27, MLCK (Homo sapiens, UniProt Q32MK0)
T27 construct: purchased Eurofins Discovery (DiscoverX KINOMEscan scanMAX)
Method: as §1

DYRK1A = target: T28, DYRK1A (Homo sapiens, UniProt Q13627)
T28 construct: purchased Eurofins Discovery (DiscoverX KINOMEscan scanMAX)
Method: as §1

CDC2L2 = target: T29, CDC2L2 (Homo sapiens, UniProt Q9UQ88)
T29 construct: purchased Eurofins Discovery (DiscoverX KINOMEscan scanMAX)
Method: as §1

ERBB4 = target: T30, ERBB4 (Homo sapiens, UniProt Q15303)
T30 construct: purchased Eurofins Discovery (DiscoverX KINOMEscan scanMAX)
Method: as §1

PAK3 = target: T31, PAK3 (Homo sapiens, UniProt O75914)
T31 construct: purchased Eurofins Discovery (DiscoverX KINOMEscan scanMAX)
Method: as §1

MEK1 = target: T32, MEK1 (Homo sapiens, UniProt Q02750)
T32 construct: purchased Eurofins Discovery (DiscoverX KINOMEscan scanMAX)
T32 sequence (Q02750 whole entry): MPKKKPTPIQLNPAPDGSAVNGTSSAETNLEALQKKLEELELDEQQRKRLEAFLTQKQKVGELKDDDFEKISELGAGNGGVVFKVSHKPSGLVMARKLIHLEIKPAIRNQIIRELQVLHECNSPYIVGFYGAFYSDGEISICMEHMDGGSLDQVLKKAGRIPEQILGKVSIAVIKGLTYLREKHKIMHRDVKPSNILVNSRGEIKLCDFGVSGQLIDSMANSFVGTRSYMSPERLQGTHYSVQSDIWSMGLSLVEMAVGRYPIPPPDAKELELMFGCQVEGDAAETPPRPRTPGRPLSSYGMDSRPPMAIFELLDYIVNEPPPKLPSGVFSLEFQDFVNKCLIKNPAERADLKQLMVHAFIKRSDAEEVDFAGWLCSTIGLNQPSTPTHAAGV
Method: as §1

MST2 = target: T33, MST2 (Homo sapiens, UniProt Q13188)
T33 construct: purchased Eurofins Discovery (DiscoverX KINOMEscan scanMAX)
Method: as §1

MET(Y1235D) = target: T34, MET(Y1235D) (Homo sapiens, UniProt P08581, Y1235D)
T34 construct: purchased Eurofins Discovery (DiscoverX KINOMEscan scanMAX)
T34 sequence (P08581 25-1390 Y1235D): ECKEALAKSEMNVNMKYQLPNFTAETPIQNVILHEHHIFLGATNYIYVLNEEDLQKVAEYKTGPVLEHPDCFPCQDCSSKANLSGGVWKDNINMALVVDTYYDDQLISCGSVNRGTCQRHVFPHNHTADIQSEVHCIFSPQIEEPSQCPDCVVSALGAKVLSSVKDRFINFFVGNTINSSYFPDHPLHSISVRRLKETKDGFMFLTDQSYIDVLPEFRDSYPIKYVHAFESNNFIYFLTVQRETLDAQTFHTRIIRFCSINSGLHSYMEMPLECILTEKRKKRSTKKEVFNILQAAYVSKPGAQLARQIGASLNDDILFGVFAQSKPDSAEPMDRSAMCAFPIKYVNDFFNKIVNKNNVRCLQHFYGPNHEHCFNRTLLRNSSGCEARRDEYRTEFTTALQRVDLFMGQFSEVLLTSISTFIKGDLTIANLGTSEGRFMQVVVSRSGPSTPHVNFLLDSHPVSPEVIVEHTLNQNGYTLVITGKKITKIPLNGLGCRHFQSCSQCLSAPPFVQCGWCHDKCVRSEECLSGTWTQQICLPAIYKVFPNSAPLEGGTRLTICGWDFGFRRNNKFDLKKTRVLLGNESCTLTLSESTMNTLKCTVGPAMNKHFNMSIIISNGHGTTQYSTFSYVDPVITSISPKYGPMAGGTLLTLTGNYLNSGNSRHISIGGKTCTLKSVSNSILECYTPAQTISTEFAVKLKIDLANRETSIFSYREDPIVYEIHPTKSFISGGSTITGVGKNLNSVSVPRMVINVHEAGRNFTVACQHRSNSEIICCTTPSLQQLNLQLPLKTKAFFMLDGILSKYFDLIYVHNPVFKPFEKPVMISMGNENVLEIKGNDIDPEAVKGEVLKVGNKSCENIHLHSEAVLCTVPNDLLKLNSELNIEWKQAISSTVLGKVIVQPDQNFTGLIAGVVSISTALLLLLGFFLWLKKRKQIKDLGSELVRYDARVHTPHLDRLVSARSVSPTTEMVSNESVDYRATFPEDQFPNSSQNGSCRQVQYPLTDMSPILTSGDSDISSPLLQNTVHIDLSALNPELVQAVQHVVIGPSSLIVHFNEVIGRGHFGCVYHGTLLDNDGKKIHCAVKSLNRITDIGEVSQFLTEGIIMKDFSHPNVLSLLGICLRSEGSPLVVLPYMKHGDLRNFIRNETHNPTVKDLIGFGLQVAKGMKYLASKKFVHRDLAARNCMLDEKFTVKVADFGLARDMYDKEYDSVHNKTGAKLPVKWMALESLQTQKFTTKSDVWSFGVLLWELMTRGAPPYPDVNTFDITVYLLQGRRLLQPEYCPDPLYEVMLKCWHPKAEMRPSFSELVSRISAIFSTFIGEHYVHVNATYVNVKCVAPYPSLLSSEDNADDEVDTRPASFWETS
Method: as §1

SMILES: Cc1cc(Nc2ccc(F)c(CC3(C(=O)N4CCC(F)(CN5CCN(c6ccc(N7CCC(=O)NC7=O)cn6)CC5)CC4)CCN(Cc4cccc(Cl)c4F)CC3)n2)n[nH]1 [SK5527]
- remaining binding at 0.1 µM ([1]; 100 nM): 68%
- remaining binding at 1 µM ([1]; 1000 nM): 44%
- remaining binding at 0.1 µM (NDR2; 100 nM): 100%
- remaining binding at 1 µM (NDR2; 1000 nM): 91%
- remaining binding at 0.1 µM (PRKD1; 100 nM): 100%
- remaining binding at 1 µM (PRKD1; 1000 nM): 100%
- remaining binding at 0.1 µM (MYLK4; 100 nM): 100%
- remaining binding at 1 µM (MYLK4; 1000 nM): 100%
- remaining binding at 0.1 µM (SRPK3; 100 nM): 100%
- remaining binding at 1 µM (SRPK3; 1000 nM): 97%
- remaining binding at 0.1 µM (SGK; 100 nM): 93%
- remaining binding at 1 µM (SGK; 1000 nM): 68%
- remaining binding at 0.1 µM (DCAMKL2; 100 nM): 93%
- remaining binding at 1 µM (DCAMKL2; 1000 nM): 91%
- remaining binding at 0.1 µM (ROS1; 100 nM): 61%
- remaining binding at 1 µM (ROS1; 1000 nM): 16%
- remaining binding at 0.1 µM (NEK7; 100 nM): 74%
- remaining binding at 1 µM (NEK7; 1000 nM): 73%
- remaining binding at 0.1 µM (ERK5; 100 nM): 100%
- remaining binding at 1 µM (ERK5; 1000 nM): 93%
- remaining binding at 0.1 µM (MEK4; 100 nM): 94%
- remaining binding at 1 µM (MEK4; 1000 nM): 73%
- remaining binding at 0.1 µM (CSF1R; 100 nM): 97%
- remaining binding at 1 µM (CSF1R; 1000 nM): 90%
- remaining binding at 0.1 µM (AMPK-alpha1; 100 nM): 100%
- remaining binding at 1 µM (AMPK-alpha1; 1000 nM): 100%
- remaining binding at 0.1 µM (TAK1; 100 nM): 74%
- remaining binding at 1 µM (TAK1; 1000 nM): 100%
- remaining binding at 0.1 µM (MINK; 100 nM): 98%
- remaining binding at 1 µM (MINK; 1000 nM): 86%
- remaining binding at 0.1 µM (SGK2; 100 nM): 93%
- remaining binding at 1 µM (SGK2; 1000 nM): 83%
- remaining binding at 0.1 µM (ERK4; 100 nM): 97%
- remaining binding at 1 µM (ERK4; 1000 nM): 98%
- remaining binding at 0.1 µM (EPHB4; 100 nM): 100%
- remaining binding at 1 µM (EPHB4; 1000 nM): 100%
- remaining binding at 0.1 µM (NEK11; 100 nM): 100%
- remaining binding at 1 µM (NEK11; 1000 nM): 100%
- remaining binding at 0.1 µM (ABL1-nonphosphorylated; 100 nM): 55%
- remaining binding at 1 µM (ABL1-nonphosphorylated; 1000 nM): 8.4%
- remaining binding at 0.1 µM (BRAF(V600E); 100 nM): 100%
- remaining binding at 1 µM (BRAF(V600E); 1000 nM): 100%
- remaining binding at 0.1 µM (ITK; 100 nM): 100%
- remaining binding at 1 µM (ITK; 1000 nM): 81%
- remaining binding at 0.1 µM ([2]; 100 nM): 24%
- remaining binding at 1 µM ([2]; 1000 nM): 0%
- remaining binding at 0.1 µM (CDKL1; 100 nM): 99%
- remaining binding at 1 µM (CDKL1; 1000 nM): 94%
- remaining binding at 0.1 µM (DCAMKL3; 100 nM): 100%
- remaining binding at 1 µM (DCAMKL3; 1000 nM): 100%
- remaining binding at 0.1 µM (CDK2; 100 nM): 100%
- remaining binding at 1 µM (CDK2; 1000 nM): 94%
- remaining binding at 0.1 µM (MLCK; 100 nM): 100%
- remaining binding at 1 µM (MLCK; 1000 nM): 0%
- remaining binding at 0.1 µM (DYRK1A; 100 nM): 79%
- remaining binding at 1 µM (DYRK1A; 1000 nM): 80%
- remaining binding at 0.1 µM (CDC2L2; 100 nM): 99%
- remaining binding at 1 µM (CDC2L2; 1000 nM): 98%
- remaining binding at 0.1 µM (ERBB4; 100 nM): 100%
- remaining binding at 1 µM (ERBB4; 1000 nM): 100%
- remaining binding at 0.1 µM (PAK3; 100 nM): 100%
- remaining binding at 1 µM (PAK3; 1000 nM): 100%
- remaining binding at 0.1 µM (MEK1; 100 nM): 76%
- remaining binding at 1 µM (MEK1; 1000 nM): 72%
- remaining binding at 0.1 µM (MST2; 100 nM): 76%
- remaining binding at 1 µM (MST2; 1000 nM): 55%
- remaining binding at 0.1 µM (MET(Y1235D); 100 nM): 86%
- remaining binding at 1 µM (MET(Y1235D); 1000 nM): 100%
